We go through 4 compounds from PMC10657792, “Downstream Allosteric Modulation of NMDA Receptors by 3-Benzazepine Derivatives” (Molecular Neurobiology, 2023).

Several values for one entry are separate records, joined by “and”; a condition that tells them apart may be missing. Equal values may be shown once.

Series [1] relates to GluN2B subunits. To be noted: cited from earlier work.
Series [2] relates to GluN2B. On the set-up: method as in PMID 35710735. To be noted: PET, non-human primates; cited from earlier work.
The target in series [3] is GluN1a wt/ GluN2B E236A (Rattus norvegicus, UniProt P35439+Q00960, E236A). Description: TEVC recording in X. laevis oocytes, GluN2B mutant screening. To be noted: GluN1-1a/E236A, individual oocytes. In kind it is cell-based.
In series [4] the target is GluN1a wt/ GluN2B F114A (Rattus norvegicus, UniProt P35439+Q00960, F114A). The series is described as above. In kind it is cell-based. Conditions: GluN1-1a/F114A, individual oocytes.
In series [5] the target is GluN1b wt/ GluN2B F194A (Rattus norvegicus, UniProt P35439+Q00960, F194A). The experiment in a line: Ligand binding assay with [3H]ifenprodil, membranes of transfected HEK cells. Conditions: 5 nM radioligand, non-specific binding with 10 µM unlabeled ifenprodil, 37 °C; single replicate. As to the method:
(§1) One day prior to transfection, human embryonic kidney (HEK) cells were reseeded into T75 flasks, aiming for a confluency of 70% after 24 h. HEK cells were then transiently co-transfected with the cDNAs (GluN1-1a/ eGFP, GluN1-1b/eGFP, GluN2B/pDsRed2-N1, GluN2B F176A/pDsRed2-N1, and GluN2B F194A/pDsRed2-N1) encoding the NMDAR subunits using Lipofectamine 3000 (Thermo Fisher Scientific, Germany) according to the manufacturer’s instructions. Approximately 60 h after transfection, the cells were resuspended in Dulbecco’s phosphate-buffered saline (PBS), and the positively double transfected cells were sorted using fluorescence-activated cell sorting (FACS). The membrane preparation, the protein yield determination, and ligand binding assay were performed as previously described. Briefly, the affinity for NMDAR was evaluated using a receptor binding assay, in which racemic […] (60 Ci/mmol; BIOTREND, Cologne, Germany), served as radioligand. The membrane fragments of NMDAR expressing HEK cells were incubated with 5 nM [^3H]ifenprodil and TRIS/EDTA-buffer (5 mM TRIS/1 mM EDTA, pH 7.5) at 37 °C. To evaluate the unspecific binding, 10 µM unlabeled ifenprodil was used.

The target of series [6] is GluN1a wt/ GluN2B wt (Rattus norvegicus, UniProt P35439+Q00960). Described as above. To be noted: 5 nM radioligand, non-specific binding with 10 µM unlabeled ifenprodil, 37 °C; single replicate. How it is done:
as §1

The target of series [7] is GluN1b wt/ GluN2B wt (Rattus norvegicus, UniProt P35439+Q00960). Described as above. To be noted: 5 nM radioligand, non-specific binding with 10 µM unlabeled ifenprodil, 37 °C; single replicate. How it is done:
as §1

Series [8] has as its target GluN1a wt/ GluN2B F176A (Rattus norvegicus, UniProt P35439+Q00960, F176A). The description is as above. Conditions: 5 nM radioligand, non-specific binding with 10 µM unlabeled ifenprodil, 37 °C; single replicate. How it is done: as §1
In series [9] the target is GluN1b wt/ GluN2B F176A (Rattus norvegicus, UniProt P35439+Q00960, F176A). The description is as above. Conditions: 5 nM radioligand, non-specific binding with 10 µM unlabeled ifenprodil, 37 °C; single replicate. How it is done: as §1
Series [10] addresses GluN1a wt/ GluN2B F194A (Rattus norvegicus, UniProt P35439+Q00960, F194A). The series is described as above. Conditions: 5 nM radioligand, non-specific binding with 10 µM unlabeled ifenprodil, 37 °C; single replicate. How it is done: as §1
[11] abbreviates: compound concentration 0.1 μM, 0.1 µM.
Where [12] appears, read: compound concentration 1 μM, 1 µM.
Where [13] appears, read: compound concentration 10 μM, 10 µM.
Setting [14] is: compound concentration 30 μM, 30 µM.

Sequence of GluN1a wt/ GluN2B F194A (Q00960 27-1482 F194A, other chains not shown): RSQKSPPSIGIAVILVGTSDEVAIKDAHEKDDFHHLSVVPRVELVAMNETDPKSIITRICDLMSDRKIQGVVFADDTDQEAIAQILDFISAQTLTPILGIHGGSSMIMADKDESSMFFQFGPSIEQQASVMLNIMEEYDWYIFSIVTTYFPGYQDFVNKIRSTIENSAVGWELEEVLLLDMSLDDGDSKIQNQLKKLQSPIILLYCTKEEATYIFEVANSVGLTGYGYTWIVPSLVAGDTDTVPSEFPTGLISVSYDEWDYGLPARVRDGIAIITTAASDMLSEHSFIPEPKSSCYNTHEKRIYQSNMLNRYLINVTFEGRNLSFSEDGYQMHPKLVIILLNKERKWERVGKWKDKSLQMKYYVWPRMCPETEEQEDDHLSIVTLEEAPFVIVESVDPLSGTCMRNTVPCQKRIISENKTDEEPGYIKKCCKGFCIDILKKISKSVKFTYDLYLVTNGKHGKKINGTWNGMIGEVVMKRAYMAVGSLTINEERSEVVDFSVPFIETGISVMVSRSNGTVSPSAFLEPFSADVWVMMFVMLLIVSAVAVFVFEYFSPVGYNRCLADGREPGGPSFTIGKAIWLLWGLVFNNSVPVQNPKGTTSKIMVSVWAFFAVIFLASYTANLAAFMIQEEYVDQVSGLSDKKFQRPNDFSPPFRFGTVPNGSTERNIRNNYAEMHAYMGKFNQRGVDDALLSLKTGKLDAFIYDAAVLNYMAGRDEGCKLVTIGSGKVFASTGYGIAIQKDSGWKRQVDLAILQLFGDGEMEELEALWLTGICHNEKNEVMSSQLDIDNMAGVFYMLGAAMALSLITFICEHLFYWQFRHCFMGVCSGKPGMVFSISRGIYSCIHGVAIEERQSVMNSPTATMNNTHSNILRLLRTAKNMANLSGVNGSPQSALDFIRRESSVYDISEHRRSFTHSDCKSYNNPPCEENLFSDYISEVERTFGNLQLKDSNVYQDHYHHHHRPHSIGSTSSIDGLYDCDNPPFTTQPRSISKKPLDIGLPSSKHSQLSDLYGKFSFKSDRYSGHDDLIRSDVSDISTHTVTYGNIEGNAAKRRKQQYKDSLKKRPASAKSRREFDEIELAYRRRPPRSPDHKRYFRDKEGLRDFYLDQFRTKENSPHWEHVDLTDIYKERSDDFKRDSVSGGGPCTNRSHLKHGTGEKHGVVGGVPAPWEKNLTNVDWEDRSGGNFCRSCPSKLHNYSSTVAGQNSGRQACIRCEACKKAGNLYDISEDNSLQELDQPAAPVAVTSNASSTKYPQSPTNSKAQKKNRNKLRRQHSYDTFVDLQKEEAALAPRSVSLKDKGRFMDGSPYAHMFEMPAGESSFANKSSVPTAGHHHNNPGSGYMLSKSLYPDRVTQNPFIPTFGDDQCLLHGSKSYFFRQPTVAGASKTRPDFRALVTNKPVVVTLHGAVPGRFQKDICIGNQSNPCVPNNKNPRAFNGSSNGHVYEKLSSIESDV
Sequence of GluN1a wt/ GluN2B wt (Q00960 27-1482, other chains not shown): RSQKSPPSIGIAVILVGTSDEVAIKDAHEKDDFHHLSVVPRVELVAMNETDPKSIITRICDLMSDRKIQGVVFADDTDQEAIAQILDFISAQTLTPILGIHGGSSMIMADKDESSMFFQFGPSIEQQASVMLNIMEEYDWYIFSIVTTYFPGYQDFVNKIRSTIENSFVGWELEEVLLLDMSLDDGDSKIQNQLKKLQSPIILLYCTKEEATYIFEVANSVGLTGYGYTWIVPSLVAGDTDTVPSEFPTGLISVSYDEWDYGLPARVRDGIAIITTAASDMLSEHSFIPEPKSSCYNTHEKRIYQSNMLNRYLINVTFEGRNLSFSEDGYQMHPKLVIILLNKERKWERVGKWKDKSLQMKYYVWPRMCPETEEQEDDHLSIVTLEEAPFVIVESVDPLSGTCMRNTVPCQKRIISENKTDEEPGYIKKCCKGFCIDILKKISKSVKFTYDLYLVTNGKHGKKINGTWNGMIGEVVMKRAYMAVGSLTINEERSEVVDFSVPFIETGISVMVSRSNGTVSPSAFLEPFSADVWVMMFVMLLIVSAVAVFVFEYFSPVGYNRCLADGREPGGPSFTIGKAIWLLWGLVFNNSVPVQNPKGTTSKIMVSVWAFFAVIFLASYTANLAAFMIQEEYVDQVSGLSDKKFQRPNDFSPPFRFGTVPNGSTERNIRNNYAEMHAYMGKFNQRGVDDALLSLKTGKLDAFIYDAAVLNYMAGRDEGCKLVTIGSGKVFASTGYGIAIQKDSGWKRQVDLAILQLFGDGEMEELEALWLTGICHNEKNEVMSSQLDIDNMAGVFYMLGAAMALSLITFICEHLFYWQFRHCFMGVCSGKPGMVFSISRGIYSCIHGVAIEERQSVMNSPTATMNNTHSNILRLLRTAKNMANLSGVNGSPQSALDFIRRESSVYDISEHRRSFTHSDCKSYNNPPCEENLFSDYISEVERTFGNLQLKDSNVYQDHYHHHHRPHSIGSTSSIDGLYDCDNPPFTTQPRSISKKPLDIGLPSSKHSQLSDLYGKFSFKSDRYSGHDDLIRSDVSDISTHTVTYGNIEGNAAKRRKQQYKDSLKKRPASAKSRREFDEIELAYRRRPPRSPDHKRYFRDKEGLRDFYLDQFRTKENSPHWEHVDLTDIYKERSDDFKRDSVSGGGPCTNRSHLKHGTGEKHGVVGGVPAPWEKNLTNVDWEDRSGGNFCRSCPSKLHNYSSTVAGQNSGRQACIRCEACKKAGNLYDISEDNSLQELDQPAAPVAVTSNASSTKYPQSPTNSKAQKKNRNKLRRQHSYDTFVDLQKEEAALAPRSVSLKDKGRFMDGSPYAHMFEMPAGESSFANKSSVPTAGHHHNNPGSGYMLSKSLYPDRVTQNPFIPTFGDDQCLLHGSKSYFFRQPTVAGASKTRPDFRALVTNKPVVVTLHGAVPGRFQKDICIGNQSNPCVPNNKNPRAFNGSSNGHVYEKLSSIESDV
Sequence of GluN1b wt/ GluN2B wt (Q00960 27-1482, other chains not shown): as above

`Oc1ccc2c(c1)CCN(CCCCc1ccccc1[18F])CC2O` (racemic) [^18F-OF-NB1]: the “blood–brain barrier permeability” value in [1] is “high”. The cerebellar accumulation result in [1] (ex vivo biodistribution assays) was “high cerebellar accumulation”.

On to `Oc1ccc2c(c1)CCN(CCCCc1ccccc1[18F])C[C@@H]2O` [(R)-^18F-OF-NB1], for which, in series [2], the “affinity in vivo relative to the S-enantiomer” value is reported as “four- to five-fold higher”, the cingulate cortex accumulation entry was “high cingulate cortex accumulation”, the uptake result is on record as “high uptake” and the washout kinetics result was “slow washout kinetics”.

Consider `Oc1ccc2c(c1)CCN(CCCCc1ccccc1F)C[C@@H]2O` [OF-NB1 R], for which the “inhibition (%)” value is 0.5349% and -0.3615% and 0.07864% and -0.02364% and -0.08675% in series [3] (compound concentration 0.001 μM, 0.001 µM); 2.174% and 5.182% and 1.1167% and -0.03546% and -0.1952% in [3] (compound concentration 0.01 μM, 0.01 µM); 22.83% and 11.3477% and 24.7562% and 0% and 0.08675% in series [3] (setting [11]); 62.3641% and 56.7584% and 57.7225% and 68.2307% and 52.0278% in series [3] (setting [12]); 74.0293% and 68.3069% and 74.5203% and 84.919% and 71.8716% in [3] (setting [13]); 82.623% and 76.0795% and 83.6584% and 89.363% and 81.8261% in series [3] (setting [14]). In addition, the “inhibition (%)” value in series [4] (setting [11]) is 0.07918% and 0.5179% and 0.211%; in [4] (setting [12]), 29.9386% and 5.971% and 22.998% and 16.9662%; in series [4] (setting [13]), 58.532% and 61.9095% and 61.1489% and 64.1685%; in series [4] (setting [14]), 87.8657% and 75.6136% and 78.22% and 87.6368%.

Turning to `CC(C(O)c1ccc(O)cc1)N1CCC(Cc2ccccc2)CC1` (stereo not shown) [[^3H]ifenprodil, ifenprodil], the “specific binding (cpm)” value in series [5] was -0.5 cpm and -1.5 cpm; in [6], 25.5 cpm and 9.5 cpm and 4.5 cpm; in series [7], 4.5 cpm and 5.5 cpm and 11.5 cpm; in [8] it was 4.5 cpm and 6.5 cpm; in series [9], -1.5 cpm and -2.5 cpm and 0.5 cpm; in series [10], 3.5 cpm and 2.5 cpm and -1.5 cpm.
